Reference: ChEMBL document CHEMBL1201862, “PubChem BioAssay data set” (2004)
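Interpolation was linear, between the two tested concentrations surrounding the appropriate level; five concentrations were tested over 48 hours in 96-well plates. Abbreviation: GI50, concentration required for 50% inhibition of growth.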 Calls of active or inactive are those of the source. Rule as the data show it: active = GI50 up to about 1.1 µM and inactive = higher.

Legend:
Test in all cases: NCI anticancer screen, dose series, 48 h
K562 = test system: K562
NCI-H226 = test system: NCI-H226
786-0 = test system: 786-0
SF-268 = test system: SF-268
OVCAR-5 = test system: OVCAR-5
SK-MEL-2 = test system: SK-MEL-2
DU-145 = test system: DU-145
MOLT-4 = test system: MOLT-4
SK-MEL-5 = test system: SK-MEL-5
Malme-3M = test system: Malme-3M
HCC 2998 = test system: HCC 2998
A549 = test system: A549
U-251 = test system: U-251
ACHN = test system: ACHN
MDA-N = test system: MDA-N
NCI/ADR-RES = test system: NCI/ADR-RES
UO-31 = test system: UO-31
Hs-578T = test system: Hs-578T
M14 = test system: M14
MCF7 = test system: MCF7
BT-549 = test system: BT-549
OVCAR-8 = test system: OVCAR-8
SK-OV-3 = test system: SK-OV-3
SN12C = test system: SN12C
T47D = test system: T47D
MDA-MB-231 = test system: MDA-MB-231
PC-3 = test system: PC-3
COLO 205 = test system: COLO 205
RPMI-8226 = test system: RPMI-8226
HOP-62 = test system: HOP-62
OVCAR-4 = test system: OVCAR-4
HCT-116 = test system: HCT-116
NCI-H23 = test system: NCI-H23
RXF 393 = test system: RXF 393
UACC-257 = test system: UACC-257
LOX IMVI = test system: LOX IMVI
EKVX = test system: EKVX
MDA-MB-435 = test system: MDA-MB-435
NCI-H460 = test system: NCI-H460
SF-539 = test system: SF-539
HT-29 = test system: HT-29
A498 = test system: A498
HCT-15 = test system: HCT-15
SNB-75 = test system: SNB-75
SW-620 = test system: SW-620
CAKI-1 = test system: CAKI-1
SR = test system: SR
IGROV-1 = test system: IGROV-1
SF-295 = test system: SF-295
HL-60 = test system: HL-60
OVCAR-3 = test system: OVCAR-3
HOP-92 = test system: HOP-92
NCI-H522 = test system: NCI-H522
SK-MEL-28 = test system: SK-MEL-28
SNB-19 = test system: SNB-19
KM12 = test system: KM12
UACC-62 = test system: UACC-62
TK-10 = test system: TK-10
CCRF-CEM = test system: CCRF-CEM

Measured: GI50

CC1=NN(c2cccc(S(=O)(=O)O)c2)C2(C1)SCC(=O)N2c1nc2ccccc2s1 (centres undefined)
> 100 µM: HCT-15
inactive: K562 > 100 µM | NCI-H226 > 100 µM | 786-0 > 100 µM | SF-268 > 100 µM | OVCAR-5 > 100 µM | SK-MEL-2 > 100 µM | DU-145 > 100 µM | MOLT-4 > 100 µM | SK-MEL-5 > 100 µM | Malme-3M > 100 µM | HCC 2998 > 100 µM | A549 > 100 µM | U-251 > 100 µM | ACHN > 100 µM | MDA-N > 100 µM | NCI/ADR-RES > 100 µM | UO-31 > 100 µM | Hs-578T > 100 µM | M14 > 100 µM | MCF7 > 100 µM | BT-549 > 100 µM | OVCAR-8 > 100 µM | SK-OV-3 > 100 µM | SN12C > 100 µM | T47D > 100 µM | MDA-MB-231 > 100 µM | PC-3 > 100 µM | COLO 205 > 100 µM | RPMI-8226 > 100 µM | HOP-62 > 100 µM | OVCAR-4 > 100 µM | HCT-116 > 100 µM | NCI-H23 > 100 µM | RXF 393 > 100 µM | UACC-257 > 100 µM | LOX IMVI 88.9 µM | EKVX > 100 µM | MDA-MB-435 > 100 µM | NCI-H460 > 100 µM | SF-539 17.6 µM | HT-29 > 100 µM | A498 > 100 µM | SNB-75 > 100 µM | SW-620 9.1 µM | CAKI-1 > 100 µM | SR 35.7 µM | IGROV-1 > 100 µM | SF-295 > 100 µM | HL-60 91.2 µM | OVCAR-3 83.2 µM | HOP-92 > 100 µM | NCI-H522 > 100 µM | SK-MEL-28 > 100 µM | SNB-19 > 100 µM | KM12 > 100 µM | UACC-62 > 100 µM | TK-10 > 100 µM

O=[N+]([O-])c1ccc(/C=N/CC2CCCN3CCCCC23)cc1 (centres undefined)
42.7 µM: HCT-15
inactive: K562 19.5 µM | 786-0 22.8 µM | SF-268 > 100 µM | OVCAR-5 > 100 µM | SK-MEL-2 > 100 µM | DU-145 > 100 µM | MOLT-4 22.9 µM | SK-MEL-5 > 100 µM | Malme-3M > 100 µM | HCC 2998 28.6 µM | A549 36.2 µM | CCRF-CEM 40.8 µM | U-251 40.6 µM | ACHN > 100 µM | MDA-N 34.9 µM | NCI/ADR-RES > 100 µM | UO-31 34.2 µM | Hs-578T > 100 µM | M14 55 µM | MCF7 24 µM | BT-549 > 100 µM | OVCAR-8 43.2 µM | SK-OV-3 > 100 µM | SN12C > 100 µM | T47D > 100 µM | MDA-MB-231 > 100 µM | PC-3 > 100 µM | COLO 205 50.9 µM | RPMI-8226 17.3 µM | HOP-62 > 100 µM | OVCAR-4 > 100 µM | HCT-116 58.6 µM | NCI-H23 > 100 µM | RXF 393 46 µM | UACC-257 > 100 µM | LOX IMVI 15.5 µM | EKVX > 100 µM | MDA-MB-435 61.7 µM | NCI-H460 > 100 µM | HT-29 16.9 µM | A498 > 100 µM | SNB-75 31.6 µM | SW-620 32.2 µM | CAKI-1 > 100 µM | SR 4.22 µM | IGROV-1 > 100 µM | SF-295 > 100 µM | HL-60 26.7 µM | HOP-92 > 100 µM | NCI-H522 > 100 µM | SK-MEL-28 > 100 µM | SNB-19 > 100 µM | KM12 33.2 µM | UACC-62 > 100 µM | TK-10 > 100 µM
